Laboratory results reported in EP3698805A1, “FRACTION OFZANTHOXYLUM PIPERITUM” (Mecox Curemed Co., Ltd., priority 2017, dated 2019).
Where “and” joins values, the source holds several entries; their conditions need not be identical. Equal entries are not always repeated. Where two headings read alike, the source gives them in different places.

Key:
[1] = test system: acetic acid-induced pain model; assay: acetic acid-induced pain model (writhing syndrome test); assay type: in vivo, ICR mice; settings: for pain inhibition effect: FIG. 3, compounds isolated from ZPE6A or ZPE6C fraction; for Pain inhibition percentage (%)(50 mg/kg, po): active ingredients
Experimental: The acetic acid-induced writhing syndrome test is an animal model for determining analgesic effects. It is mainly used to test the effect of analgesics on the peripheral nervous system. The experimental animals used herein were 5-week-old ICR mice purchased from Central Laboratory Animals (Seoul) and acclimated in a breeding room maintained at a humidity of 50% and a temperature of 24 to 26°C for one week. Feed and water were supplied for free intake. […] The test substance was orally administered 60 minutes before the induction of pain to determine the degree of analgesic effect.

[2] = test system: pain response induced by formalin; assay: formalin test; assay type: in vivo, rats; settings: 100 mg/kg
Experimental: The formalin test is primarily used to measure the analgesic effects of drugs in chronic pain models, in which the pain stimulus and response are not temporary but persistent. The pain response induced by formalin includes phase 1 and phase 2, and these two phases can be distinguished pharmacologically. The test substance and acetaminophen or aspirin, as a positive control group, were orally administered 60 minutes before the induction of pain, 10% formalin was injected subcutaneously into the hind legs of rats, and the number of actions in response to pain was measured every 3 minutes. The action in response to pain was measured separately in phase 1 (0-12 minutes) and phase 2 (24-39 minutes).

[3] = test system: mast cell RBL-2H3; assay: inhibition of mast cell degranulation (β-hexosaminidase secretion); assay type: cell-based; settings: for inhibition at 25 µg/mL / inhibition at 100 µg/mL: Rattus norvegicus
Experimental: Inhibition of inflammation-promoting cytokines has been reported to inhibit autoimmune diseases such as atopy. Thus, in the present embodiment, the mast cell RBL-2H3 was treated with the Zanthoxylum piperitum leaf extract or active compounds (quercitrin, afzelin) to evaluate the secretion inhibition ability of β-hexosaminidase. That is, the effect of inhibiting mast cell degranulation by the Zanthoxylum piperitum leaf extract or the active compound (quercitrin, afzelin) was found.

[4] = test system: collagen-induced arthritis animal model; assay: collagen-induced arthritis animal model (clinical score, micro-CT); assay type: in vivo, DBA/1J mice; parameters: scale not given here
Experimental: As one of the methods for evaluating the therapeutic effect of rheumatoid arthritis, the antirheumatic efficacy of each test substance was measured in a collagen-induced arthritis animal model. The experimental animals herein used were 5-week-old DBA/1J mice purchased from Central Laboratory Animals (Seoul) and acclimated in a breeding room maintained at a humidity of 50% and a temperature of 24 to 26°C for one week. Feed and water were supplied for free intake. In order to induce arthritis, type 2 collagen and CFA (complete Freund's adjuvant) were mixed to obtain an emulsion. 200 µL of the emulsion was injected subcutaneously […] into the lower part of the tail 2 to 3 cm away from the torso of DBA/1J mice, and the same amount of the emulsion was secondarily injected in […] into the lower part of the tail in the same manner as in the primary injection 21 days after exposure to a primary antigen. A positive control group was orally administered with dexamethasone at a dose of 1 mg/kg from the 22nd day after primary antigen exposure, the group administered with the Zanthoxylum piperitum leaf extract was orally treated at 100 mg/kg for 3 weeks, rheumatoid arthritis lesions were visually observed and graded, and the arthritis alleviation efficacy was measured as a clinical score.

[5] = RBL-2H3, read-out: degranulation inhibitory activity compared to the ketotifen drug
[6] = individual animals No. 1-7, extract 100 mg/kg oral 3 weeks, dexamethasone 1 mg/kg oral, listed as Positive control group

| Structure (SMILES) | pain inhibition effect [1] | Effect of inhibiting degranulation (% inhibition) ([3]; treatment amount 12.5 µg/mL) | Effect of inhibiting degranulation (% inhibition) ([3]; treatment amount 25 µg/mL) | Effect of inhibiting degranulation (% inhibition) ([3]; treatment amount 50 µg/mL) | Effect of inhibiting degranulation (% inhibition) ([3]; treatment amount 100 µg/mL) | other results |
| --- | --- | --- | --- | --- | --- | --- |
| O=C(O)c1ccccc1C(=O)O [1,2-benzenedicarboxylic acid] | excellent pain inhibition effects |  |  |  |  |  |
| CC(C)(C)c1ccc(O)c(C(C)(C)C)c1 [2,4-di-tert-butylphenol] | excellent pain inhibition effects |  |  |  |  |  |
| CC(=O)c1ccc(O)cc1 [4'-hydroxyacetophenone] | excellent pain inhibition effects |  |  |  |  |  |
| CC(=O)Nc1ccc(O)cc1 [Acetaminophen] |  |  |  |  |  | Inhibition (%) Phase 1 ([2]; phase 1 (0-12 minutes)): 35.2%; Inhibition (%) Phase 2 ([2]; phase 2 (24-39 minutes)): 41.7% |
| C[C@@H]1O[C@@H](Oc2c(-c3ccc(O)cc3)oc3cc(O)cc(O)c3c2=O)[C@H](O)[C@H](O)[C@H]1O [Afzelin, camphorol-3-O-alpha-L-rhamnoside] |  | 25.1 ± 1.68 | 39.4 ± 1.06 | 41.3 ± 1.67 | 40.9 ± 0.98 | Pain inhibition percentage (%)(50 mg/kg, po) [1]: 93.6%; inhibition at 25 µg/mL ([3]; RBL-2H3, treatment dose of 25 µg/mL, read-out: degranulation inhibitory activity compared to the ketotifen drug): ~195%; inhibition at 100 µg/mL ([3]; RBL-2H3, treatment dose of 100 µg/mL, read-out: degranulation inhibitory activity compared to the ketotifen drug): ~93% |
| CN1CCC(=C2c3ccccc3CC(=O)c3sccc32)CC1 [Ketotifen] |  | 13.8 ± 0.88 | 20.2 ± 0.84 | 32.8 ± 1.04 | 43.9 ± 1.45 |  |
| C[C@@H]1O[C@@H](Oc2c(-c3ccc(O)c(O)c3)oc3cc(O)cc(O)c3c2=O)[C@H](O)[C@H](O)[C@H]1O [Quercitrin, quercetin-3-O-alpha-L-rhamnoside] |  | 6.3 ± 0.13 | 14.3 ± 0.11 | 19.8 ± 0.28 | 22.2 ± 0.32 | Pain inhibition percentage (%)(50 mg/kg, po) [1]: 69.2%; inhibition at 25 µg/mL [3, 5]: ~70%; inhibition at 100 µg/mL [3, 5]: ~50% |
| C[C@@H]1C[C@H]2[C@@H]3CCC4=CC(=O)C=C[C@]4(C)[C@@]3(F)[C@@H](O)C[C@]2(C)[C@@]1(O)C(=O)CO [dexamethasone] |  |  |  |  |  | average score ([4]; group mean of total clinical score, control group 11.8): 6.3; visual clinical score Right back leg ([4]; individual animals No. 1-7, extract 100 mg/kg oral 3 weeks, dexamethasone 1 mg/kg oral): 1; visual clinical score Left back leg [4, 6]: 1 (5×) and 2 (2×); visual clinical score Left front leg [4, 6]: 3 (2×) and 2 (3×) and 1 (2×); visual clinical score Right front leg [4, 6]: 3 (2×) and 2 (3×) and 1 (2×); visual clinical score Total [4, 6]: 8 and 7 (2×) and 6 (2×) and 5 (2×) |
